In patent US20220390438A1, “Identification and Characterisation of Herbicides and Plant Growth Regulators” (priority 2019, published 2022):

Experiments:
[1] = test system: wild type Marchantia plants; assay: Lethal concentration determination: Marchantia spores plated on Johnson's medium agar supplemented with herbicide, 14-day old sporelings; format: in vivo, Marchantia polymorpha
Description: A lethal concentration of the herbicide hit was determined in the condition of the mutagenesis concentration. 20000 Marchantia spores were plated in 90 mm Petri dishes containing 25 mL of Johnson's medium containing 1.4% agar and supplemented with a range of herbicide hit concentrations ranging from 1 to 50000 nM. The lethal concentration was defined as the minimum concentration of herbicide hit sufficient to kill 100% of the wild type Marchantia plants (FIG. 11).
If no lethal concentration was observed, the highest concentration would be used in place of the lethal concentration provided that it caused the plants to show a phenotype distinct from the phenotype of untreated plants. For example, this alternative phenotype may be a strong reduction in growth (FIG. 12) or a marked change in the shape of the plants, or a change in plant pigmentation.
Marchantia polymorpha spores were irradiated with ultraviolet B irradiation and seven independent mutant lines resistant to the herbicide chlorsulfuron were identified. Chlorsulfuron resistance was determined by a Marchantia polymorpha plant that was alive two weeks following exposure to a lethal dose of Chlorsulfuron (0.1 ppm dose, i.e. a dose sufficient to kill 100% of wild-type plants).

Marchantia polymorpha = conditions: stated as known, like liverworts in general; cited from earlier work
[2] = 1000 μM herbicide, 14-day old sporelings in Petri dishes, three replicates

Compound: COc1nc(C)nc(NC(=O)NS(=O)(=O)c2ccccc2Cl)n1 [Chlorsulfuron]
- growth of sporelings [1, 2]: marked reduction in growth
- survival of sporelings [1, 2]: have not all died
- lethal dose (dose sufficient to kill 100% of wild-type plants) ([1]; wild-type Marchantia polymorpha, two weeks following exposure): 0.1 ppm

Compound: CNc1cnn(-c2cccc(C(F)(F)F)c2)c(=O)c1Cl [Norflurazon]
- survival of sporelings [1, 2]: have all died

Compound: CP(=O)(O)CCC(N)C(=O)O (stereo not drawn) [glufosinate]
- sensitivity of Marchantia polymorpha to the herbicide (Marchantia polymorpha): insensitive

Compound: O=C(O)CNCP(=O)(O)O [glyphosate]
- sensitivity of Marchantia polymorpha to the herbicide (Marchantia polymorpha): insensitive
